Reference: the METLIN SMRT retention time set (Domingo-Almenara et al. 2019)

Assay: gradient 5% acetonitrile 3 min, to 50% in 2 min, to 85% in 15 min, held 3 min, 100 µL/min
Conditions: column: Zorbax Extend-C18 2.1 x 50 mm; eluents: water / acetonitrile, 0.1% formic acid
Method in brief: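 Pure standards were analyzed in mixtures of ~100 molecules using HPLC coupled to a quadrupole time-of-flight mass spectrometer, in both positive and negative ionization mode. Separation used a Zorbax Extend-C18 column (2.1 × 50 mm, 1.8 μm) at 100 μL/min, with water and acetonitrile each containing 0.1% formic acid. Dead and dwell volumes were 40 μL and 900 μL, and data were collected over 3 months. Retention time was read from computationally picked adduct peaks, each inspected manually.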

Row | SMILES | RP-LC retention time [s]
1 | CN(CCCNC(=O)C1CCc2nc(N3CCOCC3)ncc2C1)c1ccccc1 (stereo not drawn) | 602
2 | COc1c(O)ccc2c1CN1CCc3cc4c(cc3C1C2)OCO4 (stereo not drawn) | 688
3 | COc1cccc(OCC2c3ccsc3CCN2C(=O)CN(C(=O)NC(C)C)C2CC2)c1 (stereo not drawn) | 918
4 | Cc1ccsc1C(=O)N1CCN(c2cc(-c3ccccc3)[nH]n2)CC1 | 744
5 | Cc1noc(C)c1C1CCCN1C(=O)c1ccnn1C (stereo not drawn) | 638
6 | COC(=O)c1ccc(NC(=O)C(=O)NCC2CCN(Cc3ccco3)CC2)cc1 | 573
7 | O=C(Nc1ccc(-c2cn3cccnc3n2)cc1)c1cccs1 | 629
8 | Cc1cc(C)cc(NC(=O)Cn2nc(N3CCSCC3)c3ccccc3c2=O)c1 | 1020
9 | COc1cc(C(=O)N2CCCC(C)(C(=O)NCc3ccc(C)cc3)C2)cc(OC)c1OC (stereo not drawn) | 820
10 | O=C(NCC1CCCO1)C1c2ccccc2C(=O)N1Cc1ccc2c(c1)OCO2 (stereo not drawn) | 728
11 | COc1ccc2c(Oc3ccc(NC(=O)c4c(C)n(CC(C)(C)O)n(-c5ccccc5)c4=O)nc3)ccnc2c1 | 707
12 | O=C(c1cc2cc(Br)ccc2oc1=O)N1CCN(c2ccccn2)CC1 | 616
13 | CCN1CCN(c2cc(C)c3cc(NC(=O)CC(C)C)ccc3n2)CC1 | 560
14 | COc1ccc(Nc2c(C(=O)N3CCCCC3C)cnc3nc(C)ccc23)cc1OC (stereo not drawn) | 598
15 | COc1cc(OC)cc(-c2nc(-c3ccc(NS(=O)(=O)c4cccs4)cc3)no2)c1 | 1120
16 | CC(C)N1CCN(S(=O)(=O)c2ccc(-c3nnc(C4CCC4)o3)o2)CC1 | 637
17 | CC(C)CC(NC(=O)Cc1cccs1)C(=O)Nc1nc2ccccc2[nH]1 (stereo not drawn) | 716
18 | COc1ccc(-n2c(=O)n(C)c(=O)c3cc(C(=O)Nc4ccccc4C)cnc32)cc1 | 849
19 | COc1ccc(NC(=O)Cn2nc(N3CCC(C)CC3)c3ccccc3c2=O)c(OC)c1 | 1130
20 | COc1ccc(-c2nc(Nc3ccc(C)cc3)sc2C)cc1 | 1060
21 | Cc1ccc(Nc2c(C(=O)N3CCC(C)CC3)cnc3nc(C)ccc23)c(C)c1 | 674
22 | O=C(NCc1nn(Cc2ccccc2)c2ccccc12)c1ccoc1 | 870

Row | SMILES | RP-LC retention time [s]
23 | COc1ccc(Cl)cc1S(=O)(=O)NCCc1cn(CC(C)C)c2ncccc12 | 987
24 | O=C(Cc1cccc(F)c1)N1CCC2(CC1)N=C(c1ccc(Cl)cc1)NO2 | 912
25 | COc1ccc2cc(C(=O)N3CCN(c4cc(=O)n(C)c(=O)n4C)CC3)[nH]c2c1 | 673
26 | Nc1nc(N2CCN(c3ccccc3)CC2)ncc1C(=O)Nc1ccccc1 | 784
27 | O=C(c1ccco1)N1CCCN(C2CCN(Cc3ccc(F)cc3)C2=O)CC1 (stereo not drawn) | 565
28 | Cc1nc(C)c(C(=O)N2CCC(N3C(=O)C4(CCCC4)C3c3scnc3C)CC2)s1 (stereo not drawn) | 684
29 | Cc1nc(CC(=O)NCc2ccc(F)c(Cl)c2)sc1C(=O)NC1CC1 | 708
30 | O=C(NCCN1CCOC(c2ccccc2)C1)c1ccc(Cl)c(Cl)c1 (stereo not drawn) | 610
31 | CCc1nc(-c2csc(S(=O)(=O)N3CCCC(C(=O)Nc4cccc(C)c4)C3)c2)no1 (stereo not drawn) | 983
32 | O=C1/C(=C\c2ccc(O)c(O)c2)Oc2c1ccc(O[C@@H]1O[C@H](CO)[C@@H](O)[C@H](O)[C@H]1O)c2O | 638
33 | CC(=O)N1CCCc2cc(S(=O)(=O)N3CCC(C(=O)N4CCc5ccccc5C4)CC3)ccc21 | 843
34 | COc1ccc(S(=O)(=O)N2CCCC(C(=O)Nc3ccc4c(c3)OCCO4)C2)cc1C (stereo not drawn) | 958
35 | Cc1nc([N+](=O)[O-])cn1-c1nc2ccccn2c1[N+](=O)[O-] | 753
36 | COc1ccc(-c2cn3ccn(-c4ccc(Cl)cc4)c(=O)c3n2)cc1 | 828
37 | Cc1ccc(-n2c(N3CCCC(C(=O)NCc4ccc(F)cc4F)C3)nc3ccsc3c2=O)cc1 (stereo not drawn) | 918
38 | O=C(c1ccccc1Br)N1CCN(c2cc(-c3ccc(Cl)cc3)[nH]n2)CC1 | 913
39 | CCc1nncn1C1CCN(C(=O)Nc2ccc(Cl)cc2F)C1 (stereo not drawn) | 638
40 | O=C(NC1CCCC1)C1CCCN(S(=O)(=O)c2c[nH]c(C(=O)N3CCCCCC3)c2)C1 (stereo not drawn) | 784
41 | CC(=O)N1CCc2ccccc2C1C(=O)NC1CCCCCC1 (stereo not drawn) | 831
42 | CCCN1C(=O)COc2ccc(-c3noc(C4CC(=O)N(c5ccc(C)c(C)c5)C4)n3)cc21 (stereo not drawn) | 1060
43 | CCOc1ccc(NC(=O)c2oc3cc(Br)ccc3c2C)c2cccnc12 | 800
44 | CCCCN1C(=O)C(C)(C(=O)Nc2ccc(OC)c(Cl)c2)Oc2cccnc21 (stereo not drawn) | 1080

Row | SMILES | RP-LC retention time [s]
45 | O=C(Cn1nc2nc(N3CCCC3)ccn2c1=O)Nc1ccc(F)c(Cl)c1 | 708
46 | CN(C)S(=O)(=O)c1ccc(C(=O)Nc2nc3c(s2)CCc2ccccc2-3)cc1 | 1110
47 | COCCCNC(=O)c1ccc2nc(CCc3ccc(NC(C)=O)cc3)[nH]c2c1 | 567
48 | Cc1c(C(=O)NC2CCCCCC2)sc2ncn(CC(=O)N3CC(C)CC(C)C3)c(=O)c12 (stereo not drawn) | 1070
49 | O=C1NC(C(=O)NC2CC2)Cn2cccc21 (stereo not drawn) | 569
50 | COc1ccccc1-c1ccc(N2CCN(C(=O)NC3CCCCC3)CC2)nn1 | 601
51 | CSc1cccc(NC(=O)Cc2csc(SCC(=O)Nc3ccc(C)cc3)n2)c1 | 900
52 | CCN(CC)C(=O)c1ccc2c(c1)N(CC(=O)NCCOC)C(=O)C1CCCCN21 (stereo not drawn) | 688
53 | CC(C)(C)NC(=O)N1CCC(CNC(=O)c2ccc3nsnc3c2)CC1 | 679
54 | NC(=O)C1CCN(C(=O)c2ccc(Cl)c(Cl)c2)CC1 | 656
55 | CCCN1C(=O)c2cc(S(=O)(=O)Nc3ccc(OC)cc3)ccc2Oc2cccnc21 | 1030
56 | CN(C)C(CNC(=O)c1ccccc1C(F)(F)F)c1cn(C)c2ccccc12 (stereo not drawn) | 602
57 | CCc1noc(NC(C)=O)c1-c1ccc(OC)c(S(=O)(=O)N2CCc3ccccc3C2)c1 | 628
58 | CCOC(=O)c1noc2ncnc(N3CCc4ccccc43)c12 | 948
59 | Cn1nc(C(=O)N2CCOCC2)c2c1CCN(C(=O)Nc1ccc(F)c(Cl)c1)C2 | 1070
60 | Cn1nc(-c2nc(C3CC3)no2)c2c1CCN(C(=O)c1ccc(Br)cc1)C2 | 893
61 | CC(C)CN1CCN(C(=O)C2CCCN(c3nnc4ccc(C(F)(F)F)cn34)C2)CC1 (stereo not drawn) | 614
62 | Cc1ccn2c(NC(=O)COc3ccccc3)c(-c3ccc(F)cc3)nc2c1 | 689
63 | CCc1nnc(-c2ccc(=O)n(CC(=O)N3CCC4(CC3)OCCO4)c2)o1 | 594
64 | COc1ccc(NC(=O)CCC2CCN(c3cc(NC4CC4)ncn3)CC2)c(C)c1 | 575
65 | Cc1ccc(C)c(-c2cc3c4nn(CC(=O)N(C)c5ccc(F)cc5)c(=O)n4ccn3n2)c1 | 1020
66 | CCc1nccn1Cc1nc(-c2cccc(OC)c2OC)no1 | 605

Row | SMILES | RP-LC retention time [s]
67 | CCOc1ccccc1NC(=O)N1CCC2(CC1)NC(=O)c1ccccc1N2C | 807
68 | CCn1ccc(C(=O)N2CCC(c3noc(-c4ccncc4)n3)C2)n1 (stereo not drawn) | 665
69 | CN(C)S(=O)(=O)c1ccc(-c2nnc(C(=O)NCCN3CCOCC3)o2)cc1 | 1270
70 | CCN(CC)S(=O)(=O)c1ccc2nc(N3CCN(Cc4ccc5c(c4)OCO5)CC3)cnc2c1 | 685
71 | CCc1nc2cc(-c3noc(-c4cccc(C#N)c4)n3)ccc2o1 | 1070
72 | CCC(C)NC(=O)Cn1c(=O)c2cnc(-c3ccc(C)cc3)nc2n(C)c1=O (stereo not drawn) | 920
73 | COc1ccc(OC)c(NC(=O)C2c3cc(OC)c(OC)cc3C(=O)N(C)C2c2cccnc2)c1 (stereo not drawn) | 605
74 | CN(C)C(=O)N1CCc2nn(Cc3ccccc3)c(=O)n2CC1 | 649
75 | CCc1nnc(-c2ccc3ccn(CC(=O)Nc4cc(C)ccn4)c3c2)o1 | 705
76 | NC(=O)c1ccsc1NC(=O)c1c(F)cccc1Cl | 706
77 | Cc1ccc(CNC(=O)C2CCN(Cc3cc4ccccc4n3Cc3cccc(Cl)c3)CC2)o1 | 943
78 | CCCCn1cc(S(=O)(=O)NCc2cccc(F)c2)c2cccnc21 | 964
79 | O=c1cccnn1CCNS(=O)(=O)c1ccc(OC(F)(F)F)cc1 | 711
80 | Cc1cc(C)cc(NC(=O)c2cnn3c2CCCC3)c1 | 603
81 | CN(CC1CCOCC1)S(=O)(=O)c1ccccc1C(F)(F)F | 861
82 | Cc1cc(Cl)ccc1N1C(=O)CN(S(C)(=O)=O)CC1(C)C(=O)NC1CCCCCC1 (stereo not drawn) | 984
83 | COc1ccc(OC)c(S(=O)(=O)N2CCCC(C)(C(=O)NCc3ccccc3)C2)c1 (stereo not drawn) | 903
84 | O=C(NCc1ccccc1Br)C1CCN(c2cnc3nccnc3c2)CC1 | 739
85 | COc1ccccc1C(=O)NC1CCN(c2cc(C)cc(C)c2)C1=O (stereo not drawn) | 928
86 | O=C(CN1CCC2(CC1)N=C(c1ccccc1)C(=O)N2)Nc1cccc(Br)c1 | 687
87 | Cn1c(=O)oc2cc(-c3noc(-c4ccccc4)n3)ccc21 | 1010
88 | Cc1ccc(NC(=O)Cn2nc3nc(N4CCCC(C)C4)ccn3c2=O)cc1C (stereo not drawn) | 826
